Key:
[1] = system: HFD+CCl4-induced NASH mouse model; test: In vivo pharmacodynamic study in HFD+CCl4-induced NASH mouse model; conditions: HFD+CCl4 mice; 0.5, 1, 3 mg/kg by gavage QD day 0 to day 27; reference I-181 3 mg/kg
Description: To study the effect of a compound on improving NASH and liver fibrosis in an HFD+CCl4 mouse model, with I-181 as a reference compound.
I-181 is an acetyl-CoA carboxylase inhibitor and is currently undergoing a phase II clinical study on non-alcoholic fatty liver disease (NAFLD). The HFD+CCl4 mouse model used in this study is an animal model that simulates human non-alcoholic fatty liver disease evolving into NASH. High-fat diet leads to fat accumulation and steatosis in liver cells; CCl4 (intraperitoneal injection, twice a week) simulates the “second hit” of liver injury.
The modeling for this experiment included two steps: high-fat diet feeding and CCl4 induction. Firstly, the mice were fed with high-fat diet to induce non-alcoholic fatty liver, and the mice weighing more than (>) 38 g were selected and continuously fed with high-fat diet, accompanied by the intraperitoneal injection of 25% CCl4 ([…], twice a week, for a total of four weeks). The day of starting CCl4 administration was set as day 0, and the time of starting CCl4 administration was set as hour 0. On the day of starting CCl4 administration, the administration by gavage was started, and the administration volume of each group was 5 mL/kg, once a day for 4 weeks (28 days). The injection time of CCl4 should be more than 4 hours apart from the first administration time point of the day. […]

[2] = Stability of crystal form to light, heat and humidity; format: physicochemical; conditions: solid crystal form

| Compound | Efficacy in NAS [1] | Efficacy in fibrosis [1] | Stability (light, heat and humidity) [2] |
| --- | --- | --- | --- |
| COc1ccccc1[C@H](Cn1nc(C(C)(C)C(=O)O)c(=O)c2c(C)c(-c3ncco3)sc21)OC1CCOCC1 [Compound of formula (I)] | the same efficacy as the reference compound at a higher dose | the same efficacy as the reference compound at a higher dose |  |
| COc1ccccc1[C@H](Cn1nc(C(C)(C)C(=O)O)c(=O)c2c(C)c(-c3ncco3)sc21)OC1CCOCC1 |  |  | stable, and less affected by light, heat and humidity |
